Test results from patent US20240327506A1, “METHODS AND COMPOSITION FOR THE SELECTIVE ENHANCEMENT OF ADOPTIVE CELL THERAPY” (MaineHealth, priority 2023, published 2024).

Key:
Hut78 T-cells = assay: Transwell migration of Hut78 T-cells through collagen type-IV; assay type: cell-based, human
Protocol: FIGS. 4A-4H. […] Briefly, membranes from transwell migration chambers were coated with either native collagen type-IV or denatured collagen type-IV. T-cell variants were incubated with non-specific control peptide CP, or the RGDKGE (SEQ ID NO: 1)-containing collagen peptide (P2) and seed on the coated transwell membranes. T-cells were allowed to migrate in the presence or absence of SDF-1 added to the lower chamber for approximately 1.5 hours. Cell migration was quantified by counting the number of crystal violet stained cells that had migrated through to the underside of the coated membrane. FIG. 4A. Jurkat T-cell migration through denatured collagen type-IV in the presence of non-specific control peptide CP or RGDKGE (SEQ ID NO: 1)-containing collagen peptide P2 with SDF-1. FIG. 4B. Jurkat T-cell migration through native collagen type-IV in the presence of non-specific control peptide CP or RGDKGE (SEQ ID NO: 1)-containing collagen peptide P2 with SDF-1. FIG. 4C. Cem/C1 T-cell migration through denatured collagen type-IV in the presence of non-specific control peptide CP or RGDKGE (SEQ ID NO: 1)-containing collagen peptide P2 with SDF-1. FIG. 4D. Cem/C1 T-cell migration through native collagen type-IV in the presence of non-specific control peptide CP or RGDKGE (SEQ ID NO: 1)-containing collagen peptide P2. FIG. 4E. Hut78 T-cell migration through denatured collagen type-IV in the presence of non-specific control peptide CP or RGDKGE (SEQ ID NO: 1)-containing collagen peptide P2. FIG. 4F. Hut78 T-cell migration through native collagen type-IV in the presence of non-specific control peptide CP or RGDKGE (SEQ ID NO: 1)-containing collagen peptide P2. FIG. 4G Primary CD8+ T-cell migration through denatured collagen type-IV in the presence of non-specific control peptide CP or RGDKGE (SEQ ID NO: 1)-containing collagen peptide P2 with SDF-1. FIG. 4H. CD8+ T-cell migration through native collagen type-IV in the presence of non-specific control peptide CP or RGDKGE (SEQ ID NO: 1)-containing collagen peptide P2 with SDF-1. Data bars indicate the mean cell migration±S.E. *P<0.05.
Given our new observations, and the fact that many tumor types as well as immunosuppressive macrophages can secrete the small soluble RGDKGE (SEQ ID NO: 1) collagen peptide, we next sought to determine whether this soluble collagen peptide could impact T-cell migration through denatured collagen type-IV, a critical ECM component shown to be selectively enriched in tumor vessels. Briefly, membranes from transwell migration chambers were coated with either native collagen type-IV or denatured collagen type-IV. […] Cell migration was quantified following staining cells with crystal violet (6,8). […]

αvβ3 = αvβ3 (Homo sapiens, UniProt P05106+P06756); conditions: cited from earlier work
activated fibroblasts = conditions: cited from earlier work
tumor = conditions: combination with anti-PDL-1 antibody; cited from earlier work
ID8-VEGF ovarian tumors = assay: T-cell levels in malignant ascites fluid of mice with ID8-VEGF ovarian tumors, flow cytometry; assay type: in vivo, C57BL/6 mice; conditions: compared to control antibody
Protocol: Data bars represent the mean percentage of CD8+ T-cells (+SE from 4 mice per condition) in the ascites fluid from each experimental group.
Mice (C57BL/6) were injected intraperitoneally with ID8-VEGF ovarian tumor cells. ID8-VEGF tumor cells were allowed to grow within the peritoneal cavity of mice for 4-weeks to allow formation of malignant ascites fluid and solid tumors. Beginning at 4 weeks, mice were injected subcutaneously with 100 μg per mouse 2× per week with non-specific control antibody (Ab Cont) or anti-HU177 antibody (Anti-HU177). At 12 weeks, mice were sacrificed and malignant ascites fluid was collected. The relative levels of CD4+ Treg-cells within the malignant ascites fluid was quantified by flow cytometry. Data bars represent the mean percentage of CD4+ Treg cells+SE from 4 mice per condition in the ascites fluid from each experimental group.
Given the surprising results that the Mab HU177 enhanced T-cell migration on denatured collagen type-IV, we next evaluated if administration of HU-177 antibody could increase the levels of CD8+ T-cells found in malignant ascites fluid. […] The relative levels of CD8+ T-cells within the malignant ascites fluid was quantified by flow cytometry, for 4 mice per experimental condition. […]

Sequence of αvβ3 (P06756 31-889 limits assumed): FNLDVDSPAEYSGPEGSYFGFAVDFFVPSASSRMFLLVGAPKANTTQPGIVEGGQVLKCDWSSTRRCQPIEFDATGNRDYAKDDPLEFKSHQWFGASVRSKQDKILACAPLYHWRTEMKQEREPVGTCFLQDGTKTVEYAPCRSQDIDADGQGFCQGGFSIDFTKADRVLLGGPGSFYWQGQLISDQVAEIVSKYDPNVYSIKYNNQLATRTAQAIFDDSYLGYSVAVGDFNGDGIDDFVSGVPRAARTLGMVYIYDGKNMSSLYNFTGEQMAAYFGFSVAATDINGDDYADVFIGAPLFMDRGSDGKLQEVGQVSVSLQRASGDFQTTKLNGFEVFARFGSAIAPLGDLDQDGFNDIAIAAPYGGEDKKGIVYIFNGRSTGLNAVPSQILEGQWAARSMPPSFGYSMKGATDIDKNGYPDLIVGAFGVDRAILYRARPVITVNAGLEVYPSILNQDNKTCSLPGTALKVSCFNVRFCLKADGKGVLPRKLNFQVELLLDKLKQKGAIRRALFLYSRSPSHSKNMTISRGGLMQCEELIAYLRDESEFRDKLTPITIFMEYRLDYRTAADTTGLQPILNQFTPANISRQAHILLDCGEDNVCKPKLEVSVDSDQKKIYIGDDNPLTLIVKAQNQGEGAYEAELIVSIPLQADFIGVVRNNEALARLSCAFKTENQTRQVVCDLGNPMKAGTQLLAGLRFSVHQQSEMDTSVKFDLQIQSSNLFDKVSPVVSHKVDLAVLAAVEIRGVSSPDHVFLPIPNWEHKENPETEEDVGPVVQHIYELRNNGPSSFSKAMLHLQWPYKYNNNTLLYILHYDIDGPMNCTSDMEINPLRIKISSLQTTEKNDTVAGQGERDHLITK
Sequence of αvβ3 (P06756 891-1048 partner limits assumed): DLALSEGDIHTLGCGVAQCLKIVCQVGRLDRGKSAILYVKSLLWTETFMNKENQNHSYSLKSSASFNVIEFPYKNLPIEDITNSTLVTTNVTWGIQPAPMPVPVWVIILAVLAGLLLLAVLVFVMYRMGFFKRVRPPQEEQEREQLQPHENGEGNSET
Sequence of αvβ3 (P05106 27-788): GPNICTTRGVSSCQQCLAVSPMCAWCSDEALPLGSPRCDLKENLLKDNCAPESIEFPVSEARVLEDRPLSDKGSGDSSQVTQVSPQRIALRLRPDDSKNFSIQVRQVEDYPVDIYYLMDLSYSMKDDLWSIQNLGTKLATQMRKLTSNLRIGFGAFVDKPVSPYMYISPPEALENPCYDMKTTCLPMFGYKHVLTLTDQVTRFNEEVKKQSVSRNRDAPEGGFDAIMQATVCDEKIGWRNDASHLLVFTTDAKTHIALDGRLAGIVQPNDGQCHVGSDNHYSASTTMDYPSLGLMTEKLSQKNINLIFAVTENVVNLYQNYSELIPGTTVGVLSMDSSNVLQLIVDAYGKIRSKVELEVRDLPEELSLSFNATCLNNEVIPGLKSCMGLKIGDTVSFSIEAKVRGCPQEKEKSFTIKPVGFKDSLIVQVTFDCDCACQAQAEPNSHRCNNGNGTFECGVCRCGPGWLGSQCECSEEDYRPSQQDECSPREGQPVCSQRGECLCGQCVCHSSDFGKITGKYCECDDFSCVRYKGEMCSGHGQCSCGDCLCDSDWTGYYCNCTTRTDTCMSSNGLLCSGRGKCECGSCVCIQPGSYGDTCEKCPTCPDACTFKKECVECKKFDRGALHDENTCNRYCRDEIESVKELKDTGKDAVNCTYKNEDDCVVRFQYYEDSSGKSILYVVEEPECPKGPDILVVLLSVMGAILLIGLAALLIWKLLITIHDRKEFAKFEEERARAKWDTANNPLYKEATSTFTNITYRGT

## CQGPGGAAGGC [CP, reference compound]
Hut78 T-cells; native collagen type-IV, peptide, absence of SDF-1
  Hut78 T-cell migration: nor the non-specific control peptide had any significant effect

## KGDRGDAPG (CKGDRGDAPGC; Synthetic: Synthetic collagen RGD containing peptide P-1) [synthetic collagen RGD peptide, Colla1 742-750]
αvβ3
  binding to αvβ3: bound

## Mab HU177: antibody specifically directed to denatured forms of collagen, cryptic CPGFPGFC (SEQ ID NO: 16) epitope
Activated fibroblasts
  activated fibroblast migration and accumulation within tumors in vivo: inhibits
Hut78 T-cells; denatured collagen type-IV, fab fragments, compared to control antibody
  Hut78 T-cell migration: significantly enhanced
tumor
  anti-tumor efficacy of an immune checkpoint inhibitor (anti-PDL-1) in vivo: enhance the therapeutic activity
ID8-VEGF ovarian tumors; 100 μg per mouse subcutaneously twice a week from week 4, ascites at 12 weeks
  mean % Treg cells in the ascites fluid: significant decrease
ID8-VEGF ovarian tumors; 100 μg/mouse subcutaneously twice a week from week 4, ascites at 12 weeks
  mean percentage of CD8+ T-cells in the ascites fluid: significant increase
